From the NIST ThermoML archive (doi:10.1021/je700119m)
Numbers after ± are expanded uncertainties.

Columns and labels:
[1] = refractive index (Na D-line) (dimensionless); settings: 298.15 K; 101.33 kPa; Liquid; Standard Abbe refractometry
[2] = 298.15 K, 101.33 kPa, Liquid

Row | Compound | refractive index [1] | mass density ([2]; Vibrating tube method) [kg/m3] | mass density [2] [kg/m3]
1 | COS(=O)(=O)[O-].Cn1cc[n+](C)c1 [1,3-dimethylimidazolium methylsulfate] | 1.4827 ± 0.00078 |  | 1327.2 ± 2.7
2 | CCC(C)=O [butanone] | 1.37618 ± 0.00068 |  | 799.7 ± 0.6

Further lines, results first:

Row | refractive index [1] | mass density ([2]; Vibrating tube method) [kg/m3] | mass density [2] [kg/m3] | Compound
3 | 1.37496 ± 0.00068 | 781 ± 0.4 |  | CC(C)O [propan-2-ol]
4 | 1.35929 ± 0.00068 |  | 785.1 ± 0.5 | CCO [ethanol]
5 | 1.40937 ± 0.00078 |  | 1367.3 ± 2.9 | CCCCn1cc[n+](C)c1.F[P-](F)(F)(F)(F)F [1-butyl-3-methylimidazolium hexafluorophosphate]
